Source: patent US20170158599A1, “COMPOSITIONS AND METHODS COMPRISING SALICYLATES AND POLYSALICYLATES” (Biocogent, LLC, priority 2014, published 2017)

Tested on: peripheral blood mononuclear cells (PBMC)
Test: Lipid mediators of the resolution pathways in PBMC with PMA/A23187 stimulation
Assay type: cell-based
Text: The next two sets of adjacent bars show a comparison of the effects of treatment with PMA plus A23187 in the presence of salicylic acid (on left of each group) and polysalicylic acid (on right of each group) in amounts of 1.6 micrograms per milliliter (μg/mL) and 8 micrograms per milliliter (μg/mL), respectively. […] The resultant SA derivative was evaluated at different doses on the synthesis of 8 intermediate lipids of the resolution pathways in PMBC with PMA/A23187 stimulation. PMBC cells were seeded and allowed to settle for 1 hour; the test compounds were then added and allowed to incubate for an additional hour. The inflammatory stimulus (PMA plus A23187) was added for one hour, and supernatants were collected and analyzed for lipid intermediates.

`O=C(O)c1ccccc1O` [salicylic acid, 2-hydroxybenzoic acid] was tested. Which 14-HDOHE levels/production (PMA plus A23187, 1.6 and 8 μg/mL (FIG. 1)) did it give?
Its 14-HDOHE levels/production is “noticeable increase over the control”.

What about the 12-HETE levels/production (PMA plus A23187, 1.6 and 8 μg/mL (FIG. 2)) of the same compound?
Its 12-HETE levels/production is “noticeable increase over the control”.
